Results published in patent US20200384001A1, “COMPOSITION FOR PREVENTION OR TREATMENT OF NEUROINFLAMMATORY DISEASE, CONTAINING PROTEIN TYROSINE PHOSPHATASE” (KYUNGPOOK NATIONAL UNIVERSITY INDUSTRY - ACADEMIC …, priority 2015, published 2020).
One block for each compound: values may come before it.

How the values were obtained:
BV2 microglia [1] = assay: LPS-induced NO production in BV2 microglial cell line (Griess reaction); type: cell-based; conditions: for LPS-induced NO production: BV2, Src kinase inhibitor PP2 (5 μM) or PDTC (FIG. 18)
Description: Since the production of NO (nitric oxide) is a strong marker of inflammatory response in microglia, the effect of PTP1B on LPS-induced NO production was investigated through the Griess reaction. The production of NO was measured using the amount of nitrite. Naive microglia or microglia overexpressing PTP1B were treated with LPS (originated from E. coli 055: B5; Sigma). FIG. 6 illustrates the result of treatment with a BV2 microglial cell line at the indicated dose of LPS. FIG. 7 illustrates the results of treating a BV2 microglial cell line with 100 ng LPS at the indicated time. 24 hours after incubation, 5 μl the cell culture media was mixed with Griess reagent with the same volume (0.1% naphthylethylenediamine dihydrochloride and 1% sulfanylamine in 5% phosphoric acid) in a 96-well microtiter plate. Absorbance was read at 540 nm and sodium nitrite was used for standard curve generation.
In addition, the level of LPS-induced NO production after BV2 treatment with Src kinase inhibitor PP2 (5 μM) or PDTC (Ammonium pyrrolidinedithiocarbamate, NFκB inhibitor) was identified to determine whether Src is associated with LPS-induced microglia activity. This is illustrated in FIG. 18.
Next, it was determined whether the PTP1B-mediated proinflammatory response was dependent on Src activity in microglia. […] NO levels were measured in the treated BV2 microglia and the results are illustrated in FIG. 19.

[2] = system: microglia (Iba-1 positive cells); assay: Iba-1 positive activated microglia in brain of LPS-injected mice (brain inflammation model); type: in vivo, mouse; conditions: inhibitor intracerebrally, LPS 5 mg/kg i.p., 48 hours
Description: C57BL/6 mice were injected intracerebrally with vehicle (saline solution containing 0.5% DMSO and 5% propylene glycol) or the PTP inhibitor of Table 2 above (dilution in saline solution containing 5% propylene glycol). LPS (5 mg/kg) was intraperitoneally injected 30 minutes after injection. Mice were sacrificed and the brain was analyzed 48 hours after LPS injection.
The mouse model was divided into eight experimental groups; Group 1 treated with saline solution and 0.5% DMSO; Group 2 treated with LPS and 0.5% DMSO; Group 3 treated with LPS and PTP1B inhibitor; Group 4 treated with LPS and TC-PTP inhibitor; Group 5 treated with LPS and SHP2 inhibitor; Group 6 treated with LPS and MEG2 inhibitor; Group 7 treated with LPS and LYP inhibitor; and Group 8 treated with LPS and RPTPP inhibitor. The experimental design above is illustrated in FIG. 4A.
FIG. 4B illustrates the histochemical results of confirming whether the sacrificed mouse brain is morphologically changed by straining the antibody against Iba-1, a marker of microglia.
In addition, the brains were removed and sectioned, and the hippocampus, cortex and thalamus were stained with an antibody against Iba-1. The results of histochemical confirmation are illustrated in FIG. 4C. The results of graphical representation of the number of Iba-1 positive cells per mm^2 are illustrated in FIG. 4D.

HAPI cells [3] = assay: LPS-induced NO production in HAPI rat microglial cell line; type: cell-based; conditions: 10 μM iPTP1B 1 hour, LPS 100 ng/ml 24 hours (FIG. 11)
Description: NO levels were confirmed in the stimulated rat microglial cell line, HAPI cells.

primary microglia = assay: LPS-induced NO production in mouse primary microglia; type: cell-based; conditions: 5 μM iPTP1B, LPS 50 ng/ml 24 hours (FIG. 10)
Description: NO levels were confirmed in the stimulated primary microglia.

HAPI cells [4] = assay: TNFα-induced NO production in HAPI rat microglial cell line; type: cell-based; conditions: 10 μM iPTP1B 1 hour, TNFα 100 ng/ml 24 hours (FIG. 12)
Description: NO levels were identified in the stimulated cells.

BV2 microglia [5] = assay: RT-PCR of LPS-induced proinflammatory molecule mRNA in BV2 microglia; type: cell-based; conditions: BV2, LPS 100 ng/ml 6 hours, RT-PCR (FIGS. 13, 14)
Description: The results are illustrated in FIG. 13.

brain tissues = assay: Real-time PCR of TNFα and IL1β expression in brain tissue after LPS and iPTP1B injection; type: in vivo, mouse; conditions: real-time PCR 6 hours after injection of LPS (FIG. 23)
Description: The expression level of TNFα and IL1β genes, which are proinflammatory factors, was measured by real-time PCR 6 hours after the injection of LPS, and the results are illustrated in FIG. 23.

PTP1B = target: T1, PTP1B (Homo sapiens, UniProt P18031); conditions: statement without data; inhibitor obtained from Dr. Zhang group; cited from earlier work
T1 sequence (P18031 1-435): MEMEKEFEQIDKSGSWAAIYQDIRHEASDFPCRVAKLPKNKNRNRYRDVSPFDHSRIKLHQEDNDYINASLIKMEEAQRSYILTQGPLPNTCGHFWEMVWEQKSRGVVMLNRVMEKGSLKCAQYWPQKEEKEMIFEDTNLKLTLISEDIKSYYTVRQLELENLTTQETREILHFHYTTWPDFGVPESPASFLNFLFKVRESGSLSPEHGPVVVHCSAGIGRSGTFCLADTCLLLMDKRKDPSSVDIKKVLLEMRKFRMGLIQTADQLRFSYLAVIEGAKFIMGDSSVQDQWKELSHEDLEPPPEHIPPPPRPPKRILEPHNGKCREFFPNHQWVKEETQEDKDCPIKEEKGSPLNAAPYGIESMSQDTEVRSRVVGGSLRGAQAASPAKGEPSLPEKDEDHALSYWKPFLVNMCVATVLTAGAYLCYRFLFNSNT

Src = assay: Phosphorylation of Src at Y527 in brain of LPS-injected inflammatory mouse model; type: in vivo; conditions: LPS+iPTP1B or iPTP1B injected into the brain, after 24 hours (FIG. 20)
Description: In addition, in vivo experiments were carried out using an inflammatory mouse model injected with LPS to identify the effect of PTP1B on phosphorylation of Src at Y527 in vivo. […] At this time, total Src and beta-actin were used as a loading control group and Lnc2 was used as a marker of neuroinflammation. The results are illustrated in FIG. 20.

BV2 microglia [6] = assay: TNFα protein ELISA in BV2 microglial culture media; type: cell-based; conditions: BV2, LPS, 24-hour incubation, ELISA (FIG. 15)
Description: In addition, the level of TNFα protein in the BV2 microglial culture media treated with LPS as described above was confirmed by ELISA. […] After 24-hour incubation, the TNFα levels in the culture media were measured using a rat monoclonal anti-mouse TNFα antibody as the capture antibody and a goat biotinylated polyclonal anti-mouse TNFα antibody as the detection antibody. The measured levels of TNFα protein results are illustrated in FIG. 15.

Compound: N.S=C(S)N1CCCC1 [PDTC, Ammonium pyrrolidinedithiocarbamate]
- LPS-induced NO production (BV2 microglia [1]): inhibited significantly

Compound: CC(C)(C)n1nc(-c2ccc(Cl)cc2)c2c(N)ncnc21 [PP2]
- dose dependence of inhibition of LPS-induced NO production (BV2 microglia [1]; BV2, PP2 pretreatment (FIG. 18)): dose-dependent
- LPS-induced NO production (BV2 microglia [1]): inhibited significantly
- NO levels: effect on the anti-inflammatory effect of iPTP1B (BV2 microglia [1]; BV2 pretreated with PP2 or iPTP1B 1 hour, LPS 24 hours (FIG. 19)): eliminated the anti-inflammatory effect of iPTP1B

Compound: Cn1c(-c2cccc(NC(=O)CNC(=O)c3cc(Br)cc(I)c3)c2)c(I)c2cc(C(=O)O)c(O)cc21 [RPTPβ inhibitor, 2-(3-(2-(3-bromo-5-iodobenzamido)acetamido)phenyl)-6-hydroxy-3-iodo-1-methyl-1H-indole-5-carboxylic acid]
- activation of LPS-induced microglia (Iba-1 positive cells) in the cortex [2]: decrease the activation of LPS-induced microglia
- activation of LPS-induced microglia (Iba-1 positive cells) in the hippocampus [2]: decrease the activation of LPS-induced microglia

Compound: CCc1ccc(C(=O)NCCCC[C@H](NC(=O)[C@H](Cc2ccc(C(F)(F)P(=O)(O)O)cc2)NC(=O)[C@H](Cc2ccccc2)NC(=O)CO[C@@H]2C[C@@H](C)CC[C@@H]2C(C)C)C(N)=O)cc1 [TC-PTP inhibitor]
- activation of LPS-induced microglia (Iba-1 positive cells) in the cortex [2]: decrease the activation of LPS-induced microglia

Compound: ((4-((S)-3-(((S)-1-amino-3-(2-(4-hydroxy-3-methoxyphenyl)acetamido)-1-oxopropan-2-yl)amino)-5-(3-iodobenzamido)-1-oxopentan-2-yl)amino)-6-hydroxy-3-iodo-1-methyl-2-(3-(2-oxo-2-((4-thiophen-3-yl)phenyl)amino)acetamido)phenyl)-1H-indole-5-carboxlic acid [SHP2 inhibitor]
- activation of LPS-induced microglia (Iba-1 positive cells) in the hippocampus [2]: decrease the activation of LPS-induced microglia

- IC50 (BV2 microglia [1]; BV2, pretreated 1 hour, LPS 100 ng/ml, Griess method (FIG. 9), read-out: IC50 for level of LPS-induced NO): 10.3 µM
Compound: (S)-4-(((S)-1-(12-azanyl)-3-(4-(difluoro(phosphono)methyl)phenyl)-1-oxopropan-2-yl)amino)-3-((S)-3-(4-(difluoro(phosphono)methyl)phenyl)-2-pentadecanamidopropanamido)-4-oxobutanoic acid [iPTP1B]
- level of LPS-induced NO (HAPI cells [3]): significantly decreased
- level of LPS-induced NO (primary microglia): significantly decreased
- TNFα-induced NO level (HAPI cells [4]): significantly decreased
- LPS-induced IL1β mRNA expression (BV2 microglia [5]; 10 M iPTP1B): significantly inhibits
- LPS-induced TNFα mRNA expression (BV2 microglia [5]; 10 M iPTP1B): significantly inhibits
- LPS-induced iNOS mRNA expression (BV2 microglia [5]; 10 M iPTP1B): significantly inhibits
- LPS-induced Cox2 mRNA expression (BV2 microglia [5]; iPTP1B): significantly inhibits
- level of LPS-induced NO (BV2 microglia [1]; BV2, different concentrations of iPTP1B, LPS 100 ng/ml (FIG. 9)): dose-dependently decreased
- NO production, treatment with inhibitor alone (basic level) (BV2 microglia [1]; BV2, iPTP1B alone without LPS): did not inhibit or increase NO production
- expression of IL1β gene in brain (brain tissues): significantly weakened
- expression of TNFα gene in brain (brain tissues): significantly weakened
- specificity for PTP1B (PTP1B): highly specific to PTP1B
- phosphorylation of Src at Y527 in vivo (Src): increased phosphorylation of Src at Y527
- activation of LPS-induced microglia (Iba-1 positive cells) in the cortex [2]: decrease the activation of LPS-induced microglia
- activation of LPS-induced microglia (Iba-1 positive cells) in the hippocampus [2]: decrease the activation of LPS-induced microglia
- expression level of TNFα protein in the culture media (BV2 microglia [6]): significantly low
